In EP0996337B1, “A PROCESS OF DELIVERING A POLY[…] THE VASCULAR SYSTEM” (Mirus Bio Corporation, priority 1997, dated 1998):

Test: Serum ALT and GGT after injections in mice
Format: in vivo
Details: positive control, one day after intraperitoneal injection of 40 µl of 50% in mineral oil, n=4
Procedure: Blood obtained from the retro-orbit sinus was analyzed for serum concentration of hGH using the RIA, HGH-TGES 100T kit from Nichols Institute (San Juan Capistrano, CA). Serum ALT and GGT levels were done using EKTACHEM DT slides and a KODAK EKTACHEM DT 60 ANALYZER as recommended by the manufacturer (Kodak. Rochester, NY)
Similar results were also obtained when bile ducts were injected with 100 µg of pCILuc in 1 ml of 15% mannitol and 2.5 units heparin/ml in normal saline solution. A mean total luciferase protein/liver of 15.39 µg/liver (Fig. 1A. BD+CL) was obtained when the hepatic vein was clamped as compared to a mean total luciferase protein/liver of 1.33 µg/liver (Fig 1A. BD-CL) without occluding the hepatic vein If mannitol was omitted then the bile duct injections without clamping any blood vessels yielded approximately 15-fold less luciferase (0 086 µg/liver ± 0.06, n = 25). […] Serum ALT and GGT assays were performed on mice one and eight days after each of the above injections with pCILuc (4 mice for each condition). No increases in […] were observed after any of the injections including the bile duct injections. Serum ALT levels increased to 200-400 U/L one day after portal vein and bile duct injections. One day after IVC injections serum ALT levels increased to ∼1500 U/L in half of the mice but was only ∼250 U/L in the other half. […]

ClC(Cl)(Cl)Cl [carbon tetrachloride]
Serum ALT, average: 25,900 U/L
